Earlier results in the CATMoS acute toxicity set (Mansouri et al. 2021).
“And” between values parts separate entries of the source, which are not always exact repeats. Identical values can stand only once.

Experiment: rat acute oral toxicity
Details: in vivo

`O=C1CCc2cc(C(O)CCCN3CCN(c4cccc(Cl)c4)CC3)ccc2N1` (stereo not drawn) and `O=c1ccc2cc(CCCCN3CCN(c4ccccc4)CC3)ccc2[nH]1` are the same in LD50: 500 mg/kg for the first, 500 mg/kg for the second.

Compared with `FC(F)(F)c1cccc(CNC2=NCCS2)c1`, `FC(F)(F)c1nc2c(Br)ccc(Br)c2[nH]1` is 2.8-fold lower in LD50: 50 mg/kg for the first, 18 mg/kg for the second.

Compared with `CN(C)CCN(CCN(C)C)n1cc(-c2ccccc2)c2ccccc21`, `CN1CCC(n2[nH]c(-c3ccccc3)c(Cc3ccccc3)c2=O)CC1` is 2.2-fold higher in LD50: 1250 mg/kg for the first, 2700 mg/kg for the second.

`CC=CCCCCCCCC(=O)OC` and `CC(C)(C)CCCCCCC(=O)O` are within 1.5-fold of each other in LD50: 3000 mg/kg for the first, 2070 mg/kg for the second.

Going from `COc1ccc(-c2oc3ccc(C(=O)O)cc3c(=O)c2OC(C)C)cc1` to `COC(=O)C(C)c1ccc(-c2ccsc2)cc1` (stereo not drawn), the LD50 rises from 1480 mg/kg to 2330 mg/kg (1.6-fold).

Compared with `CCN(N=O)C(N)=O`, `CCN(N=O)C(=O)NC(N)=O` is 3.5-fold higher in LD50: 300 mg/kg for the first, 1050 mg/kg for the second.

Going from `CC(=O)NNc1ccc(N)cc1` to `Cc1nnc(NS(=O)(=O)c2ccc(N)cc2)s1`, the LD50 rises from 10 mg/kg to 3500 mg/kg (350-fold).

First: CCCCCCOC(=O)CC#N
Second: CCCOC(=O)Nc1ccco1
The LD50 of the first is 4-fold higher: 6440 mg/kg for the first, 1600 mg/kg for the second.

First: NCCCn1ccnc1
Second: CCCCN1CCCC1=Nc1ccc(Cl)c(Cl)c1
The LD50 of the first is 1.7-fold lower: 1780 mg/kg for the first, 3050 mg/kg for the second.

`c1ccc2c(c1)CCCC2` and `CN(C)CCCN1c2ccccc2CCc2cc(O)ccc21` are within 1.5-fold of each other in LD50: 2860 mg/kg for the first, 2980 mg/kg for the second.

`COc1cc(C(=O)OC2CCC(N3CCCCC3)CC2)cc(OC)c1OC` (stereo not drawn) and `CCc1c2c(nc3ccc(OC(=O)N4CCC(N5CCCCC5)CC4)cc13)-c1cc3c(c(=O)n1C2)COC(=O)C3(O)CC` (stereo not drawn) are within 1.5-fold of each other in LD50: 650 mg/kg for the first, 867 mg/kg for the second.

Going from `CN1C(C(=O)Nc2ccccn2)=C(OC(=O)C(C)(C)C)c2sc(Cl)cc2S1(=O)=O` to `CN1CCN(C(=O)OC2c3nccnc3C(=O)N2c2ccc(Cl)cn2)CC1` (stereo not drawn), the LD50 rises from 24.6 mg/kg to 827 mg/kg (34-fold).

Going from `CC(C)c1cc(Oc2c(I)cc(CC(=O)O)cc2I)ccc1O` to `O=C(O)c1cc(-c2ccc(F)cc2F)ccc1O`, the LD50 rises from 5.4 mg/kg to 392 mg/kg (73-fold).

Compared with `CC(C)=CCCC(C)=CCCC(=CCCC(C)=CCO)CO`, `CCC=C(C)C=O` is 2.5-fold lower in LD50: 10900 mg/kg for the first, 4290 mg/kg for the second.

Compared with `C=C(C)C1CCC(C)(OP(=S)(OC)OC)CC1` (stereo not drawn), `COP(=S)(OC)SCSc1ccccc1Cl` is 38-fold lower in LD50: 500 mg/kg for the first, 13 mg/kg for the second.

First: C1CCC(N2CCOCC2)CC1
Second: CN(C)CC1CCCCC1
The LD50 of the first is 6.9-fold lower: 178 mg/kg for the first, 1230 mg/kg for the second.

Compared with `CCc1nccnc1C`, `CCC(O)(CC)c1[nH]ncc1Cl` is 2.5-fold lower in LD50: 600 mg/kg for the first, 236 mg/kg for the second.

First: Oc1ccc(C(O)CNCCCCCCNCC(O)c2ccc(O)c(O)c2)cc1O (stereo not drawn)
Second: O=c1ccc2cc3ccoc3c(O)c2o1
The LD50 of the first is 21-fold higher: 10000 mg/kg for the first, 480 mg/kg for the second.

Going from `CCOC(C1=NCC(C)(CC)CN1)c1cccc(F)c1` (stereo not drawn) to `CCCC(C)C(c1ccc(O)cc1)C(C)C` (stereo not drawn), the LD50 rises from 165 mg/kg to 1900 mg/kg (12-fold).

First: COc1ccccc1N1CCN(CCCOc2ccc(N)cc2)CC1
Second: Nc1ccc(Oc2ccc(N)cc2)cc1
The LD50 of the first is 1.7-fold lower: 416 mg/kg for the first, 725 mg/kg for the second.

Compared with `CC(C)(C)NCC(O)c1cc(Cl)c(N)c(C(F)(F)F)c1` (stereo not drawn), `CC(C)(C)c1cc(C=C(C#N)C#N)cc(C(C)(C)C)c1O` is 3.5-fold lower in LD50: 306 mg/kg for the first, 87 mg/kg for the second.

Compared with `CN1C2CCC(C)(C)C1CC(OC(=O)C(O)(c1cccs1)c1cccs1)C2` (stereo not drawn), `CCC(C)c1ccccc1OC(N)=O` (stereo not drawn) is 2.9-fold lower in LD50: 1180 mg/kg for the first, 410 mg/kg for the second.

First: CC(C)CNC(=O)N1CCNC1=O
Second: O=C(Cn1c(=O)sc2ccc(Cl)cc21)N1CCNCC1
The LD50 of the first is 4.8-fold higher: 3500 mg/kg for the first, 734 mg/kg for the second.

`Cc1nc2ccccc2[se]1` and `CC1N=C(N)CC1c1ccccc1` (stereo not drawn) are within 1.5-fold of each other in LD50: 471 mg/kg for the first, 420 mg/kg for the second.

Compared with `NNC(=O)CSc1cc(Oc2ccc(F)cc2)ncn1`, `O=C(Oc1cccc(O)c1)c1ccccc1` is 2-fold higher in LD50: 400 mg/kg for the first, 800 mg/kg for the second.

Compared with `CCC1(C)CC(=O)NC1=O` (stereo not drawn), `CNC(=O)Oc1ccc(C)c2c1OC(C)(C)C2` is 150-fold lower in LD50: 1820 mg/kg for the first, 12 mg/kg for the second.

First: COC(F)(F)C(Cl)Cl
Second: FC(Cl)C(F)(Cl)Cl (stereo not drawn)
The LD50 of the first is 2.2-fold lower: 3600 mg/kg for the first, 7800 mg/kg for the second.

Going from `CCC(C)c1cc([N+](=O)[O-])cc([N+](=O)[O-])c1OC(=O)SC` (stereo not drawn) to `CCOC(=O)C1=C(C)NC(C)=C(C(=O)OCCN2CCCCC2)C1c1cccc([N+](=O)[O-])c1` (stereo not drawn), the LD50 rises from 200 mg/kg to 363 mg/kg (1.8-fold).

Compared with `CC1CN(CCCCCCCCNC(=O)Oc2ccc3c(c2)C2(C)CCN(C)C2N3C)CC(C)O1` (stereo not drawn), `CSc1ccc(OP(C)(C)=S)cc1C` is 3.1-fold higher in LD50: 56 mg/kg for the first, 175 mg/kg for the second.

First: C1=CC2C3CCC(C3)C2C1 (stereo not drawn)
Second: C1CCC2OCCOCCOCCOC3CCCCC3OCCOCCOCCOC2C1 (stereo not drawn)
The LD50 of the first is 8.9-fold higher: 670 mg/kg for the first, 75 mg/kg for the second.

Going from `CCC(C)c1ccccc1` (stereo not drawn) to `O=CC(Br)=Cc1ccccc1`, the LD50 falls from 2240 mg/kg to 1450 mg/kg (1.5-fold).

Going from `C[N+]1(CCC(C(N)=O)(c2ccccc2)c2ccccc2)CCCCCC1` to `CCOC(C(=O)O)(c1ccccc1)c1ccccc1`, the LD50 falls from 2800 mg/kg to 1000 mg/kg (2.8-fold).

First: CCOP(=O)(OC=C(Cl)Cl)OCC(Cl)CCl (stereo not drawn)
Second: CCN(CC)CCOC1(c2ccc(Cl)cc2)CCCCC1
The LD50 of the first is 7.6-fold lower: 66 mg/kg for the first, 500 mg/kg for the second.

Going from `CC(C)n1nc(-c2cccc(Cl)c2Cl)c(N)nc1=N` to `CON=C(Cc1cccnc1)c1ccc(Cl)cc1Cl`, the LD50 rises from 229 mg/kg to 1700 mg/kg (7.4-fold).

`N=C(NN=Cc1ccc(Cl)cc1)NN=Cc1ccc(Cl)cc1` and `COc1ccccc1NC(=O)CC(=O)c1ccccc1` are within 1.5-fold of each other in LD50: 1350 mg/kg for the first, 1600 mg/kg for the second.

In the case of `CCCCCCCCCN(CCCCCCCCC)CCCCCCCCC`, the LD50 is given as 5600 mg/kg.

In the case of `C[C@H](CCC(=O)O)[C@H]1CC[C@H]2[C@@H]3CC[C@@H]4C[C@H](O)CC[C@]4(C)[C@H]3C[C@H](O)[C@]12C`, the LD50 is given as 1370 mg/kg and 1000 mg/kg.
For `Cc1cc(C(C)(C)C)c(O)c(C)c1CC1=NCCN1`, the LD50 is listed as 0.8 mg/kg and 0.68 mg/kg.
